In publication PMC5972072 (Bioorganic chemistry, 2018):
Entries after “also recorded” stand apart in the source; their conditions may differ.

What was measured:
haspin kinase [1] = molecular target: T1, haspin kinase (Homo sapiens, UniProt Q8TF76); experiment: Haspin kinase activity, ADP-Glo kinase assay, single concentration; type: biochemical; conditions: for haspin inhibition (in words): 100 nM compound, 3 h, Figure 2; for inhibition at 0.1 µM: read-out: inhibition of haspin's enzymatic activity
T1 sequence (Q8TF76 1-798): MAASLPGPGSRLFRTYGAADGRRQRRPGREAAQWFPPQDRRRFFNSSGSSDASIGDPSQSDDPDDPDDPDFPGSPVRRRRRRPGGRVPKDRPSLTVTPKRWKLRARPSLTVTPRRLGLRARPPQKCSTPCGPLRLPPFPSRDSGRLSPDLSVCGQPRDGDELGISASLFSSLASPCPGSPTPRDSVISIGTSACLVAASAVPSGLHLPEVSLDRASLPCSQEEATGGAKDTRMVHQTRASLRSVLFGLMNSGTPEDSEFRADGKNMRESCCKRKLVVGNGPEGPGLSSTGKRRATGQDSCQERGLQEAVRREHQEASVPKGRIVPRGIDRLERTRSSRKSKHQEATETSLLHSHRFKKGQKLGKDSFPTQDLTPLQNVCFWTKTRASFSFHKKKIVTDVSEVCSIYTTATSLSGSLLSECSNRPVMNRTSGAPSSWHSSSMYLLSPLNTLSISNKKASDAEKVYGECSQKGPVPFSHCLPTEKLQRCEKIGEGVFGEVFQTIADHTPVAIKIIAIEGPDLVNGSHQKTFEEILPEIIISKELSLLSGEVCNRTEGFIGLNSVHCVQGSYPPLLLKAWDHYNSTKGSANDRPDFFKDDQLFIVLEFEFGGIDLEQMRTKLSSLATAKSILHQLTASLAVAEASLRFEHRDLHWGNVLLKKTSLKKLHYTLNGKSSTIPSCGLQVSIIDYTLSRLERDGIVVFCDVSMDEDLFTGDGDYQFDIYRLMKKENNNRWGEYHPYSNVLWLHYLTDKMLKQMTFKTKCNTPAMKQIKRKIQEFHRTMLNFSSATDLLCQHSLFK

HCT116 cells [2] = experiment: Antiproliferative activity, CellTiter-Blue viability; type: cell-based; conditions: for antiproliferative activity (in words): HCT116, 10 μM, 72 h; for IC50: Homo sapiens, HCT-116, 72 h, read-out: IC50 against HCT116
A375 cells = experiment: as above; type: cell-based; conditions: A375, 10 μM, 72 h
HeLa cells = experiment: as above; type: cell-based; conditions: 72 h; for antiproliferative activity (in words): 10 μM; for IC50: Homo sapiens, read-out: IC50 against HeLa
HCT116 and HeLa cells = HCT116 and HeLa cells ref 13; cited from earlier work
haspin kinase [3] = molecular target: T1, haspin kinase; experiment: Haspin dose-response
[4] = tested on: caspase 3/7 in HCT116 cells; experiment: Caspase 3/7 fluorescence assay; conditions: HCT116, after 72 hours, normalized to DMSO
HCT116 cells [5] = experiment: Cell cycle analysis, propidium iodide staining with flow cytometry; type: cell-based

| Structure (SMILES) | haspin inhibition (in words) (haspin kinase [1]) | antiproliferative activity (in words) (HCT116 cells [2]) | antiproliferative activity (in words) (A375 cells) | antiproliferative activity (in words) (HeLa cells) | also measured |
| --- | --- | --- | --- | --- | --- |
| Oc1ccc(-c2nc3c(ccc4cn[nH]c43)c3c2CCCC3)cc1 [Compound 19, 4-(6,7,8,9-Tetrahydro-3H-pyrazolo[4,3-c]phenanthridin-5-yl)phenol] | not as active against haspin than compound 1; also recorded: poor haspin inhibitors | performed poorly | performed poorly | performed poorly | – |
| CCCNc1ccc2ncc(-c3ccc4[nH]ncc4c3)n2n1 [CHR-6494] | – | – | – | – | apoptosis (in words) (HCT116 and HeLa cells): apoptosis; cell cycle arrest (in words) (HCT116 and HeLa cells): G2/M cell cycle arrest |
| Oc1cc(F)c(-c2nc3ccc4[nH]ncc4c3c3c2CCCC3)cc1F [Compound 10, 2,5-Difluoro-4-(8,9,10,11-tetrahydro-3H-pyrazolo[4,3-a]phenanthridin-7-yl)phenol] | decreased potency | – | – | – | – |
| Oc1ccc(-c2nc3ccc4[nH]ncc4c3c3c2CCCC3)c(F)c1 [HSD972, 3-Fluoro-4-(8,9,10,11-tetrahydro-3H-pyrazolo[4,3-a]phenanthridin-7-yl)phenol] | – | potent antiproliferative activities | – | potent antiproliferative activities | IC50 (HCT116 cells [2]): 2700 nM; caspase 3/7 activity (in words) [4]: increased the activity of caspase 3/7; cells in G2 phase (HCT116 cells [5]; HCT116, 13.5 μM (5X IC50), 24 h, DMSO 16.2%): 59.3%; effect on cell cycle distribution (in words) (HCT116 cells [5]; HCT116, 5X IC50, 24 h, compared to DMSO): population of cells in the G2/M phase was higher; inhibition at 0.1 µM (haspin kinase [1]): > 90%; IC50 (HeLa cells): 4800 nM |
| N#Cc1n[nH]c2ccc3nc(-c4ccc(O)cc4)c4c(c3c12)CCCC4 [Compound 7, 7-(4-Hydroxyphenyl)-8,9,10,11-tetrahydro-3H-pyrazolo[4,3-a]phenanthridine-1-carbonitrile] | no inhibitory activity; also recorded: did not inhibit haspin; also recorded: poor haspin inhibitors | performed poorly | performed poorly | performed poorly | – |
| Oc1ccc(-c2nc3ccc4[nH]ncc4c3c3c2CCCC3)c(F)c1F [Compound 21, 2,3-Difluoro-4-(8,9,10,11-tetrahydro-3H-pyrazolo[4,3-a]phenanthridin-7-yl)phenol] | decreased potency | – | – | – | – |
| Oc1ccc(-c2nc3ccc4cn[nH]c4c3c3c2CCCC3)cc1 [Compound 20, 4-(8,9,10,11-Tetrahydro-1H-pyrazolo[3,4-a]phenanthridin-7-yl)phenol] | not as active against haspin than compound 1 | – | – | – | – |

Further lines, with some results ahead:

| haspin inhibition (in words) (haspin kinase [1]) | Structure (SMILES) | antiproliferative activity (in words) (HCT116 cells [2]) | antiproliferative activity (in words) (A375 cells) | antiproliferative activity (in words) (HeLa cells) | also measured |
| --- | --- | --- | --- | --- | --- |
| less active against haspin than HSD972 | Oc1ccc(-c2nc3ccc4[nH]ncc4c3c3c2CCCC3)cc1F [Compound 8, 2-Fluoro-4-(8,9,10,11-tetrahydro-3H-pyrazolo[4,3-a]phenanthridin-7-yl)phenol] | – | – | – | – |
| good haspin inhibitor | Oc1ccc(-c2nc3ccc4[nH]ncc4c3c3c2CCCC3)cc1 [Compound 1, 4-(8,9,10,11-Tetrahydro-3H-pyrazolo[4,3-a]phenanthridin-7-yl)phenol] | did not have good anticancer activities | did not have good anticancer activities | did not have good anticancer activities | – |
| did not affect haspin inhibition | Nc1ccc(-c2nc3ccc4[nH]ncc4c3c3c2CCCC3)cn1 [Compound 17, 5-(8,9,10,11-Tetrahydro-3H-pyrazolo[4,3-a]phenanthridin-7-yl)pyridin-2-amine] | – | – | – | IC50 (haspin kinase [3]): 45 nM; inhibition at 0.1 µM (haspin kinase [1]): > 90% |
| potent inhibitors of haspin | Nc1ccc(-c2nc3ccc4[nH]ncc4c3c3c2CCCC3)cc1 [HSD929, 4-(8,9,10,11-Tetrahydro-3H-pyrazolo[4,3-a]phenanthridin-7-yl)aniline] | potent antiproliferative activities | – | potent antiproliferative activities | IC50 (HCT116 cells [2]): 1680 nM; IC50 (haspin kinase [3]): 61 nM; haspin inhibition (in words) (haspin kinase [1]; listed as 16): did not affect haspin inhibition; inhibition at 0.1 µM (haspin kinase [1]): > 90%; IC50 (HeLa cells): 3600 nM |
| slightly less active against haspin | Nc1ncc(-c2nc3ccc4[nH]ncc4c3c3c2CCCC3)cn1 [Compound 18, 5-(8,9,10,11-Tetrahydro-3H-pyrazolo[4,3-a]phenanthridin-7-yl)pyrimidin-2-amine] | – | – | – | – |
| poor haspin inhibitor | Oc1ccc(-c2nc3ccc4[nH]ncc4c3c3c2CCCC3)cn1 [Compound 12, 5-(8,9,10,11-Tetrahydro-3H-pyrazolo[4,3-a]phenanthridin-7-yl)pyridin-2-ol] | moderate antiproliferative activity | moderate antiproliferative activity | moderate antiproliferative activity | – |
